Experimental data published in publication PMC10200341 (Bioconjugate chemistry, 2022).

Experiments:
A2AR = conditions: ref [36]; cited from earlier work
Nb6E-E2-PTHR1 = experiment: cell signaling assay Nb6E-E2-PTHR1; type: cell-based; conditions: comparison with past work ref [26]

CCNC(=O)[C@H]1O[C@@H](n2cnc3c(N)nc(NCCc4ccc(CCC(=O)O)cc4)nc32)[C@H](O)[C@@H]1O [CGS21680]
A2AR agonism (A2AR): potent agonist of A2AR

PTH(1–34): prototypical PTHR1 ligand
potency relative to past work using wild-type PTHR1 (Nb6E-E2-PTHR1): potency comparable to past work using wild-type PTHR1
